In patent US8198307B2, “Imidazole derivatives having aryl piperidine substituent, method for preparation thereof and pharmaceutical compositions containing same” (Korea Research Institute of Chemical Technology, priority 2007, dated 2012):

biological target: T1, MCH R1 (melanine-concentrating hormone receptor-1) (Homo sapiens, UniProt Q99705); experiment: Inhibitory effects on MCH R1 binding (Eu-MCH time-resolved fluorescence binding assay); conditions: not given
T1 construct: purchased Euroscreen, Gosselies, Belgium
How it was run: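 Receptor membranes were incubated 90 min at room temperature with 2 nM Eu-MCH and test compound (1 nM–10 μM final) in 25 mM HEPES pH 7.4, 5 mM MgCl2, 1 mM CaCl2, 0.5% BSA, then filter-washed. Nonspecific binding was defined with 0.5 μM MCH. Time-resolved fluorescence (ex 340/em 615 nm) gave percent inhibition of specific binding.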

T1 sequence (Q99705 whole entry, species assumed): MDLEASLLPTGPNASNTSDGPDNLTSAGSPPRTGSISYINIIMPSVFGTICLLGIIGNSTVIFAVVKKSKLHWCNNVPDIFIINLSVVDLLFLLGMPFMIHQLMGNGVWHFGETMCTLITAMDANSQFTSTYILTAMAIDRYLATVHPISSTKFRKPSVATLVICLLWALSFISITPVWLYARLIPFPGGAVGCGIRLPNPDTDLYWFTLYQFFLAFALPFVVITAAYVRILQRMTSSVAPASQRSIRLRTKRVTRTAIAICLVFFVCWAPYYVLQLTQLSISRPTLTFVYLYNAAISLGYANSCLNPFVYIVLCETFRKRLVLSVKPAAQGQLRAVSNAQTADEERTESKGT

| SMILES | IC50 |
| --- | --- |
| CC(=O)Nc1cccc(C2CCN(CCCn3c(-c4ccc(Cl)cc4)nc4ccc([N+](=O)[O-])cc43)CC2)c1 [Example 42, 2-(4-chlorophenyl)-1-{3-[4-(3-acetylaminophenyl)piperidin-1-yl]propyl}-6-nitro-1H-benzimidazole] | 111 nM |

same assay, conditions: concentration inhibiting the binding of MCH (Eu-MCH, 2 nM) to MCH R1 by 50% in vitro; TRF readout; test range 1 nM to 10 μM; read-out: IC50

| SMILES | IC50 |
| --- | --- |
| CC(=O)Nc1cccc(C2CCN(CCCn3c(-c4ccccc4O)nc4ccccc43)CC2)c1 [Example 63, 2-(2-hydroxyphenyl)-1-{3-[4-(3-acetylaminophenyl)piperidin-1-yl]propyl}-1H-benzimidazole] | 94 nM |
| CC(=O)Nc1cccc(C2CCN(CCCn3c(-c4ccccc4Cl)nc4ccccc43)CC2)c1 [Example 9, 2-(2-chlorophenyl)-1-{3-[4-(3-acetylaminophenyl)piperidin-1-yl]propyl}-1H-benzimidazole] | 10 nM |
| CC(=O)Nc1cccc(C2CCN(CCCn3c(-c4ccccc4I)nc4ccccc43)CC2)c1 [Example 14, 2-(2-iodophenyl)-1-{3-[4-(3-acetylaminophenyl)piperidin-1-yl]propyl}-1H-benzimidazole] | > 10000 nM |
| CC(=O)Nc1cccc(C2CCN(CCCn3c(-c4ccc(Cl)cc4)nc4cc(C#N)ccc43)CC2)c1 [Example 81, 2-(4-chlorophenyl)-1-{3-[4-(3-acetylaminophenyl)piperidin-1-yl]propyl}-5-cyano-1H-benzimidazole] | 70 nM |
| CC(=O)Nc1cccc(C2CCN(CCCn3c(-c4ccc(Cl)c(Cl)c4)nc4ccccc43)CC2)c1 [Example 12, 2-(3,4-dichlorophenyl)-1-{3-[4-(3-acetylaminophenyl)piperidin-1-yl]propyl}-1H-benzimidazole] | 24 nM |
| CC(=O)Nc1cccc(C2CCN(CCCn3c(-c4ccsc4)nc4cc(C)ccc43)CC2)c1 [Example 120, 5-methyl-2-(thiophen-3-yl)-1-{3-[4-(3-acetamidophenyl)piperidin-1-yl]propyl}-1H-benzimidazole] | 1 nM |
| CC(=O)Nc1cccc(C2CCN(CCCn3c(C)nc4cc(Br)c(C)nc43)CC2)c1 [Example 92, 6-bromo-2,5-dimethyl-3-{3-[4-(3-acetylaminophenyl)piperidin-1-yl]propyl}-3H-imidazo[4,5-b]pyridine] | 188 nM |
| COc1ccccc1-c1nc2ccccc2n1CCCN1CCC(c2cccc(NC(C)=O)c2)CC1 [Example 17, 2-(2-methoxyphenyl)-1-{3-[4-(3-acetylaminophenyl)piperidin-1-yl]propyl}-1H-benzimidazole] | 747 nM |
| CC(=O)Nc1cccc(C2CCN(CCCn3c(-c4ccccc4)nc4cc(C)c(C)cc43)CC2)c1 [Example 21, 2-phenyl-1-{3-[4-(3-acetylaminophenyl)piperidin-1-yl]propyl}-5,6-dimethyl-1H-benzimidazole] | 5 nM |
| CC(=O)Nc1cccc(C2CCN(CCCCCn3c(-c4ccccc4)nc4ccccc43)CC2)c1 [Example 7, 2-phenyl-1-{5-[4-(3-acetylaminophenyl)piperidin-1-yl]pentyl}-1H-benzimidazole] | 74 nM |
| CC(=O)Nc1cccc(C2CCN(CCCn3c(-c4ccc([N+](=O)[O-])cc4Cl)nc4ccccc43)CC2)c1 [Example 57, 2-(2-chloro-4-nitrophenyl)-1-{3-[4-(3-acetylaminophenyl)piperidin-1-yl]propyl}-1H-benzimidazole] | 37 nM |
| CC(=O)Nc1cccc(C2CCN(CCCn3c(-c4ccc(Br)o4)nc4ccccc43)CC2)c1 [Example 108, 2-(5-bromofuran-2-yl)-1-{3-[4-(3-acetylaminophenyl)piperidin-1-yl]propyl}-1H-benzimidazole] | 3 nM |
| CC(=O)Nc1cccc(C2CCN(CCCn3c(-c4ccc(Oc5ccccc5)cc4)nc4ccccc43)CC2)c1 [Example 47, 2-(4-phenoxyphenyl)-1-{3-[4-(3-acetylaminophenyl)piperidin-1-yl]propyl}-1H-benzimidazole] | 42 nM |
| CC(=O)Nc1cccc(C2CCN(CCCn3c(Cc4cccnc4)nc4ccccc43)CC2)c1 [Example 126, 2-(pyridin-3-ylmethyl)-1-{3-[4-(3-acetamidophenyl)piperidin-1-yl]propyl}-1H-benzimidazole] | 47 nM |
| CC(=O)Nc1cccc(C2CCN(CCCn3c(Cc4ccccn4)nc4ccccc43)CC2)c1 [Example 125, 2-(pyridin-2-ylmethyl)-1-{3-[4-(3-acetamidophenyl)piperidin-1-yl]propyl}-1H-benzimidazole] | 2 nM |
| CC(=O)Nc1cccc(C2CCN(CCCn3c(-c4cccn4C)nc4ccccc43)CC2)c1 [Example 111, 2-(1-methylpyrrol-2-yl)-1-{3-[4-(3-acetylaminophenyl)piperidin-1-yl]propyl}-1H-benzimidazole] | 9 nM |
| CC(=O)Nc1cccc(C2CCN(CCCn3c(-c4ccccc4Cl)nc4cc(C)c(C)cc43)CC2)c1 [Example 37, 2-(2-chlorophenyl)-1-{3-[4-(3-acetylaminophenyl)piperidin-1-yl]propyl}-5,6-dimethyl-1H-benzimidazole] | 39 nM |
| CC(=O)Nc1cccc(C2CCN(CCCn3c(-c4ccccc4)nc4cc(Br)c(C)nc43)CC2)c1 [Example 68, 6-bromo-5-methyl-2-phenyl-3-{3-[4-(3-acetylaminophenyl)piperidin-1-yl]propyl}-3H-imidazo[4,5-b]pyridine] | 110 nM |

| SMILES | IC50 |
| --- | --- |
| CC(=O)Nc1cccc(C2CCN(CCCn3c(-c4ccc(Cl)cc4F)nc4cc(C)c(C)cc43)CC2)c1 [Example 59, 2-(4-chloro-2-fluorophenyl)-1-{3-[4-(3-acetylaminophenyl)piperidin-1-yl]propyl}-5,6-dimethyl-1H-benzimidazole] | 239 nM |
| CC(=O)Nc1cccc(C2CCN(CCCn3c(-c4cccnc4)nc4ccccc43)CC2)c1 [Example 105, 2-(pyridin-3-yl)-1-{3-[4-(3-acetamidophenyl)piperidin-1-yl]propyl}-1H-benzimidazole] | 60 nM |
| CC(=O)Nc1cccc(C2CCN(CCCn3c(-c4ccoc4)nc4ccccc43)CC2)c1 [Example 107, 2-(furan-3-yl)-1-{3-[4-(3-acetylaminophenyl)piperidin-1-yl]propyl}-1H-benzimidazole] | 25 nM |
| CC(=O)Nc1cccc(C2CCN(CCCn3c(-c4ccc(Cl)cc4)nc4ccccc43)CC2)c1 [Example 4, 2-(4-chlorophenyl)-1-{3-[4-(3-acetylaminophenyl)piperidin-1-yl]propyl}-1H-benzimidazole] | 1 nM |
| Cc1nc2ccccc2n1CCCN1CCC(c2cccc(NC(=O)C(C)C)c2)CC1 [Example 90, 2-methyl-1-{3-[4-(3-isobutyrylaminophenyl)piperidin-1-yl]propyl}-1H-benzimidazole] | 80 nM |
| COc1ccc(Cl)cc1-c1nc2ccccc2n1CCCN1CCC(c2cccc(NC(C)=O)c2)CC1 [Example 56, 2-(5-chloro-2-methoxyphenyl)-1-{3-[4-(3-acetylaminophenyl)piperidin-1-yl]propyl}-1H-benzimidazole] | 66 nM |
| CC(=O)Nc1cccc(C2CCN(CCCn3c(-c4ccc(C)nc4)nc4ccccc43)CC2)c1 [Example 114, 2-(6-methylpyridin-3-yl)-1-{3-[4-(3-acetamidophenyl)piperidin-1-yl]propyl}-1H-benzimidazole] | 42 nM |
| CC(=O)Nc1cccc(C2CCN(CCCn3c(-c4ccc(C(F)(F)F)cc4)nc4ccccc43)CC2)c1 [Example 45, 2-(4-trifluoromethylphenyl)-1-{3-[4-(3-acetylaminophenyl)piperidin-1-yl]propyl}-1H-benzimidazole] | 3 nM |
| CC(=O)Nc1cccc(C2CCN(CCCn3c(-c4cccs4)nc4ccccc43)CC2)c1 [Example 109, 2-(thiophen-2-yl)-1-{3-[4-(3-acetylaminophenyl)piperidin-1-yl]propyl}-1H-benzimidazole] | 15 nM |
| CC(C)C(=O)Nc1cccc(C2CCN(CCCn3c(-c4ccc(Cl)cc4)nc4ccccc43)CC2)c1 [Example 64, 2-(4-chlorophenyl)-1-{3-[4-(3-isobutyrylaminophenyl)piperidin-1-yl]propyl}-1H-benzimidazole] | 5 nM |
| CCCCc1nc2c(C)cc(C)nc2n1CCCN1CCC(c2cccc(NC(C)=O)c2)CC1 [Example 95, 2-butyl-5,7-dimethyl-3-{3-[4-(3-acetylaminophenyl)piperidin-1-yl]propyl}-3H-imidazo[4,5-b]pyridine] | 90 nM |
| CC(=O)Nc1cccc(C2CCN(CCCn3c(-c4ccc(Cl)cc4)nc4c(C)c(C)ccc43)CC2)c1 [Example 39, 2-(4-chlorophenyl)-1-{3-[4-(3-acetylaminophenyl)piperidin-1-yl]propyl}-4,5-dimethyl-1H-benzimidazole] | 7 nM |
| CC(=O)Nc1cccc(C2CCN(CCCn3c(-c4ccccc4)nc4ccc(Br)cc43)CC2)c1 [Example 43, 2-phenyl-1-{3-[4-(3-acetylaminophenyl)piperidin-1-yl]propyl}-6-bromo-1H-benzimidazole] | 3 nM |
| CCCCc1nc2c(C)c(-c3ccccc3)c(C)nc2n1CCCN1CCC(c2cccc(NC(C)=O)c2)CC1 [Example 96, 2-butyl-5,7-dimethyl-6-phenyl-3-{3-[4-(3-acetylaminophenyl)piperidin-1-yl]propyl}-3H-imidazo[4,5-b]pyridine] | 60 nM |
| CC(=O)Nc1cccc(C2CCN(CCCn3c(-c4ccccn4)nc4ccccc43)CC2)c1 [Example 104, 2-(pyridin-2-yl)-1-{3-[4-(3-acetamidophenyl)piperidin-1-yl]propyl}-1H-benzimidazole] | 33 nM |
| COc1ccc2c(c1)nc(-c1ccco1)n2CCCN1CCC(c2cccc(NC(C)=O)c2)CC1 [Example 119, 2-(furan-2-yl)-5-methoxy-1-{3-[4-(3-acetamidophenyl)piperidin-1-yl]propyl}-1H-benzimidazole] | 249 nM |
| COc1ccc2nc(-c3ccccc3)n(CCCN3CCC(c4cccc(NC(C)=O)c4)CC3)c2c1 [Example 27, 2-phenyl-1-{3-[4-(3-acetylaminophenyl)piperidin-1-yl]propyl}-6-methoxy-1H-benzimidazole] | 11 nM |
